Laboratory results reported in US8647610B2, “Use of melanin biosynthesis inhibitors from korean ginseng and the cosmetic composition containing thereof for skin whitening” (Amorepacific Corporation, priority 2007, dated 2014).

Key:
[1] = system: Mouse melanocytes (Mel-Ab cells); assay: Melanin production inhibitory effect using mouse melanocytes (Dooley method); assay type: cell-based; conditions: 10 ppm of test substance for 3 days, absorbance at 400 nm
[2] = system: human skin; assay: Whitening effect on human skin after UVB-induced blackness; assay type: in vivo; conditions: 10 weeks, colorimeter
Excerpt: An opaque tape having a perforated hole of a 1.5 cm-diameter was attached to the upper arm of each of 12 healthy men. Then, UV rays (UVB) were irradiated to each of the subjects at a dose 1.5-2 times higher than the minimal erythema dose, thus inducing skin's blackness.
After the UV irradiation, a 1 wt % solution of each of the test samples (1,3-butyleneglycol: ethanol=7:3, as a vehicle) was applied to the skin of each subject. As negative and positive control groups, a 3 wt % solution of each of […] was applied to the skin of each subject. […] The skin color was measured with a colorimeter (Minolta, Japan) at a 1-week interval. Then, the difference (ΔL*) in skin color between the time point of application and the time point of completion of application of each sample was calculated according to the following equation 2, and the calculation results are shown in Table 2 below. Meanwhile, the whitening effect of each sample was evaluated by comparing ΔL* between the site applied with each sample and the control site.

[3] = 1 wt % solution in 1,3-butyleneglycol:ethanol=7:3 applied to UVB-irradiated upper arm of 12 healthy men

Compound	Melanin production inhibitory rate (%) [1] [%]	Lightless (ΔL*) of skin color [2, 3]	inhibition at 10 ppm ([1]; Mus musculus, 72 h, read-out: Melanin production inhibitory rate (%)) [%]	Lightless (ΔL*) of skin color ([2]; 3 wt % solution (positive control) applied to UVB-irradiated upper arm of 12 healthy men)
20-O-β-D-glucopyranosyl-20(S)-protopanaxatriol [Example 1]	35.1	1.60 ± 0.13	–	–
20-O-β-D-glucopyranosyl-20(S)-protopanaxatriol [Example 2]	33.6	1.67 ± 0.17	–	–
20-O-β-D-glucopyranosyl-20(S)-protopanaxatriol [Example 3]	34.2	1.71 ± 0.13	–	–
20-O-β-D-glucopyranosyl-20(S)-protopanaxatriol [Example 4]	34.9	1.64 ± 0.21	–	–
20-O-β-D-glucopyranosyl-20(S)-protopanaxatriol [ginsenoside F1]	–	higher than 1.6	–	–
O=c1cc(CO)occ1O [Kojic acid, reference compound]	–	–	30.5	1.56 ± 0.11
